What was measured:
[1] = test system: GACΔC (C-terminal truncation mutant of GAC); assay: Glutaminase activity of immunoprecipitated GACΔC from treated Dbl-transformed cells; format: cell-based, mouse; conditions: 10 μM, 48 hours
[2] = test system: HMECs; assay: Growth of normal human mammary epithelial cells; format: cell-based; conditions: 10 μM, MEGM complete medium, 6 days
[3] = test system: SKBR3 cells; assay: Growth to high density and in low serum, SKBR3; format: cell-based, human; conditions: 10 μM
Experimental: (§1) FIGS. 2A-G illustrate effects of 968 on the transforming activity of constitutively active Rho GTPases and human breast cancer cells. […] Cells were scored after 14 days and plotted as the percentage of the total number of colonies greater than 50 μm in diameter. Data represent the average of 3 experiments (±s.d.). […] Data represent the average of 3 experiments (±s.d.). […] Data represent the average of 3 experiments (±s.d.). […] After 24 hours at 37° C., the migratory cells were fixed, stained with GIEMSA, and counted. Data represent the average of 3 experiments (±s.d.). […] Data represent the average of 3 experiments (±s.d.). […] Data represent the average of 3 experiments (±s.d.). […] Data represent the average of 3 experiments (±s.d.).
100%=620 moles of glutamine hydrolyzed per minute per mole of enzyme. Data represent the average of 3 experiments (±s.d.). […] Following precipitation of the beads and re-suspension, the samples were analyzed by Western blotting with anti-V5 antibody. […] Data represent the average of 3 experiments (±s.d.). […] Data represent the average of 3 experiments (±s.d.). […] Data represent the average of 3 experiments (±s.d.). FIG. 3E NIH 3T3 cells transiently expressing Dbl were assayed for focus formation in the presence of 10 μM 968 alone or together with 7 mM dimethyl α-ketoglutarate. […] 100%=680 nM glutamine hydrolyzed per minute per 10^5 cells. […]

[4] = test system: NIH 3T3 cells expressing oncogenic Dbl; assay: Dbl-induced cellular transformation (focus formation, growth in low serum, soft agar); format: cell-based, mouse
Experimental: FIGS. 1A-E illustrate that the small molecule 968 inhibits cellular transformation. […] Cells were fixed and stained with crystal violet for counting of foci. Right: 968 was serially diluted (10, 5, 2.5, and 1.25 μM) and evaluated for its ability to inhibit focus formation. […] After 6 days, the cells were counted. 100% represents the number of Dbl-transformed cells counted in the absence of 968 (27.5×10^4 cells). Data represent the average of 3 experiments (±s.d.). […] At the indicated times, the cells were counted. Data represent the average of 3 experiments (±s.d.).
as §1
FIGS. 5A-C illustrate comparative abilities of 968 and other benzo[a]phenanthridinones to inhibit the transforming activity of oncogenic Dbl and H-Ras. […] Histograms show the relative levels of Dbl-induced focus formation for the different treatments, compared to Dbl-induced focus formation measured in the presence of DMSO (i.e. solvent control). Data represent the average of 3 experiments (mean±s.d.). […] Histograms show the relative levels of Ras(G12V)-induced focus formation measured for the different treatments, compared to Ras(G12V)-induced focus formation measured in the presence of DMSO (solvent control). Data represent the average of 3 experiments (mean±s.d.). FIG. 5C NIH 3T3 cells stably expressing H-Ras(G12V) that were cultured in DMEM supplemented with 1% calf serum, with the indicated amounts of 968. After 6 days, cells are trypsinized and counted. 100% represents the number of cells counted in the absence of 968, i.e. 26×10^4 cells. Data represent the average of 3 experiments (mean±s.d.).

`CN(C)c1ccc(C2Nc3ccc4ccccc4c3C3=C2C(=O)CC(C)(C)C3)cc1Br` (stereo not shown) [Compound 968, 5-[3-bromo-4-(dimethylamino)phenyl]-2,2-dimethyl-2,3,5,6-tetrahydrobenzo[a]] was tested, and the “basal activity of GACΔC” value [1] was “not further reduced”, the “effect on growth of HMECs” value [2] was “little effect” and the “growth in low serum” value ([3]; 1% fetal bovine serum) was “inhibits their growth”. The “growth to high density” value ([3]; 10% fetal bovine serum, 6 days) was “inhibits their growth”, the “Dbl-induced colony formation in soft agar” value ([4]; 10 μM) was “blocked” and the “potency against Dbl-induced transformation compared to oncogenic H-Ras” value ([4]; focus formation in NIH 3T3 cells or growth in low serum) was “more potent inhibitor of Dbl-induced transformation”. For the same molecule, the “concentration at which active in blocking Dbl-induced transformation” value ([4]; focus-forming assays or growth in low serum) was 1 to 10 µM.
